Reference: patent US10012659B2, “Methods for diagnosing iron-related pathologies” (priority 2014, dated 2018)
Marks after values point to notes of the source that are not given here.

Assays:
[1] = system: normal individual plasma; experiment: Coagulation kinetic analyses and COHF assay (TTG increase after CORM-2); assay type: biochemical, human; conditions: CORM-2 100 μM; based on individual, not group mean responses
Protocol: Plasma was rapidly thawed at 37° C. on the day of experimentation. The final volume for all subsequently described plasma sample mixtures was 359.4 μl. […] Plasma sample mixtures were placed in a disposable cup in a computer-controlled thrombelastograph® hemostasis system (Model 5000, Haemoscope Corp., Niles, Ill., USA), with addition of CaCl2 as the last step to initiate clotting. Data were collected at 37° C. for 15 min. The following elastic modulus-based parameters previously described (Benk et al., Eur J Cardio-Thorac Surg 44:551-558 (2013); Owens Clin Biochem 43:1183-1188 (2010); Balla et al., Antioxid Redox Signal 9:2119-2137 (2007); Nielsen et al., Blood Coagul Fibrinolysis 20:377-380 (2009); Nielsen et al., Blood Coagul Fibrinolysis 22:443-447 (2011); Nielsen et al., Blood Coagul Fibrinolysis 22:756-759 (2011); Nielsen et al., Blood Coagul Fibrinolysis 24:405-410 (2013)) were determined: time to maximum rate of thrombus generation (TMRTG): this is the time interval (min) observed prior to maximum speed of clot growth; maximum rate of thrombus generation (MRTG): this is the maximum velocity of clot growth observed (dynes/cm^2/sec); and total thrombus generation (TTG, dynes/cm^2), the final viscoelastic resistance observed after clot formation. […]

[2] = system: fibrin fiber network of healthy platelet rich plasma (PRP); conditions: PRP exposed to compound, then thrombin; SEM
Protocol: SEM-Based Analyses. […] Blood was obtained from three healthy, female subjects after written, informed consent was obtained. […] Their plasma ferritin (range 2.6-3.3 g/L), serum ferritin (range 13-28 ng/ml) and iron saturation of ferritin (range 19-33%) were normal. As noted previously, forty ml of whole blood was obtained, anticoagulated (sodium citrate, 9 parts blood to 1 part 0.105M sodium citrate), and platelet rich plasma (PRP) was generated by centrifugation of blood at 1250×g for 2 min (Nielsen et al., Blood Coagul Fibrinolysis 25:695-702 (2014); Nielsen et al., Blood Coagul Fibrinolysis 25:845-50 (2014)). […]
The cover slips were placed in 0.075 M PBS on a shaker and washed for 20 minutes. […] Once the samples had been coated they were analyzed with a scanning electron microscope (Zeiss ULTRA plus FEG SEM, Carl Zeiss Microscopy GmbH, Jena, Germany).
After visualization of the fibrin networks with SEM, micrographs were obtained at 40,000 times machine magnification. […] One fiber was randomly selected out of every block of the grid, ensuring that fiber measurements were not duplicated, and that fibers were systematically assessed to prevent observer bias (Pretorius Ultrastruct Pathol 35(4):150-154 (2001); Pretorius et al., Blood Coagul Fibrinolysis 22(8):696-700 (2011)). […] From each sample, 50 fibers were measured.

[3] = system: normal pooled plasma; experiment: Concentration-response of FeCl3 on reaction time (R), ROTEM delta thromboelastometry; assay type: biochemical, human; conditions: 2-10 μM FeCl3
Protocol: First, a concentration-response relationship of iron concentration and reaction time (R, defined as 2 mm clot strength; this is also known as clotting time in thromboelastometric analyses) was determined. The rationale for using R time was that it is the first indication of the onset of coagulation, is used in both thrombelastographic and thromboelastometric systems, and was anticipated to quickly and easily detect iron-mediated enhancement of coagulation based on previous work. This concentration-response relationship was generated with a ROTEM® delta hemostasis system (Tem Innovations GmbH, Munich, Germany) generously provided by the manufacturer. All disposable cups/pins and reagents were also provided by Tem Innovations. Plasma was rapidly thawed at 37° C. on the day of experimentation. […] After 3 min or more of incubation at room temperature, 320 μl of these iron-exposed plasmas were subsequently placed in a disposable cup, with subsequent addition of 20 μl of 200 mM CaCl2. The complete sample was mixed by pipette once, and the reaction commenced at 37° C. The R values were subsequently recorded.

[4] = system: normal pooled plasma; experiment: Effect of FeCl3 and deferoxamine chelation on reaction time (R), thrombelastograph; assay type: biochemical, human; conditions: FeCl3 10 μM; for reaction time: median (1st, 3rd quartile)
Protocol: Thrombelastograph-Based Analyses. All thrombelastograph-based experiments were performed at the University of Arizona. Frozen, citrate anticoagulated normal pooled plasma was obtained from a commercial vendor (George King Bio-Medical, Overland Park, Kans., USA) for use in subsequently described experimentation. […] Deferoxamine was obtained from a commercial vendor (Cayman Chemical Company, Ann Arbor, Mich., USA). […] Then, 336 μl of either plasma mixture was placed in a disposable cup in a computer-controlled thrombelastograph® hemostasis system (Model 5000, Haemoscope Corp., Niles, Ill., USA). […] Thus, there were four conditions: no deferoxamine, no FeCl3, (Control), deferoxamine, no FeCl3 (deferoxamine); no deferoxamine, FeCl3 (FeCl3); and finally, FeCl3 followed by deferoxamine (FeCl3+Deferoxamine). There were six replicates per condition. Thereafter, 20 μl of 200 mM CaCl2 was added as the last step to initiate clotting. Data were collected at 37° C. until R was recorded. […] There were six replicates per condition. An aliquot of 340 μl of each of the four conditions was placed into thrombelastographic cups and 20 μl of 200 mM CaCl2 was added to initiate clotting. Data were collected at 37° C. until R was recorded. As R values varied between experiments, and a fixed number of channels were available (n=4), plasma was incubated at room temperature between 45-60 min prior to initiation of coagulation. The third series of experiments was designed to decrease incubation time by increasing temperature and deferoxamine concentration without compromising the ability to detect iron-mediated changes in R values. […] The mixtures were mixed with the disposable pin, and allowed to incubate for 15 min at 37° C. Clotting was initiated by addition of 20 μl of 200 mM CaCl2 and data collected at 37° C. until R was recorded. A total of six replicates of the four experimental conditions were analyzed.

Structure (SMILES)	normal individual increase in TTG secondary to CORM-2 exposure [1] [%]	decrease in average fibrin fiber width vs normal subjects (105±3 nm) [2] [%]	R values vs plasma without FeCl3 addition [3]	FeCl3-mediated decrease in R values ([4]; 45-60 minute incubation) [%]	reduction in R values compared to control plasma values ([4]; 3 min incubation series) [%]	reaction time ([4]; Fifteen min incubation at 37° C., deferoxamine 2.78 mM)	reaction time ([4]; Forty-five to sixty min incubation at room temperature, deferoxamine 1 mM)	reaction time ([4]; Three min incubation at room temperature, deferoxamine 1 mM)
[C-]#[O+].[C-]#[O+].[C-]#[O+].[C-]#[O+].[C-]#[O+].[C-]#[O+].[Cl][Ru][Cl].[Cl][Ru][Cl] [CORM-2, tricarbonyldichlororuthenium (II) dimer]	89	43	–	–	–	–	–	–
[Cl][Fe]([Cl])[Cl] [FeCl3, ferric chloride]	–	58	significantly smaller	72	54	4.6 (4.4, 6.0)*† min	5.0 (4.9, 5.1)*† min	5.9 (5.8, 6.4)*† min
